# Source: publication PMC11778240, “Synthesis and preclinical evaluation of tigilanol tiglate analogs as latency-reversing agents for the eradication of HIV” (Science Advances, 2025)
# Columns and labels:
# PKC-β fused to GFP = target: T1, PKC-β fused to GFP (Homo sapiens, UniProt P05771); assay: PKC-GFP translocation assay in CHO-K1 cells (confocal microscopy); assay type: cell-based; settings: 500 nM, within 10 min
# T1 construct: host or cells: CHO-K1
# Text: (§1) Using confocal microscopy, this assay allows us to visualize, in real time, cell permeation and the ligand-induced translocation of specific PKC isoforms from the cytosol to the membranes of the cell—the hallmark of PKC activation ([29], [68]). […] In alignment with past studies on the activation of PKC in CHO-K1 cells ([22], [65], [69]), we observed strong plasma membrane translocation of PKC-β (Fig. 7C).
# (§2) Agar stabs of DH5-alpha (high copy) bacterial cells, containing plasmids for expression of mammalian PKC-δ (Plasmid #: 178856) and PKC-β (Plasmid #: #112265) fused to EGFP under constitutive mammalian promoters CAG and CMV, respectively, were purchased from Addgene.
# (§3) Upon receipt, these stabs were incubated at 37 °C in 5% CO2 for 24 hours to allow sufficient bacterial growth. Following incubation, a sterile pipette tip was utilized to streak bacteria onto LB agar plates that are positive for the respective antibiotic that selects for each plasmid. For bacteria containing Plasmid #: 178856, bacteria were streaked onto CellPro™ LB (Lennox) + Ampicillin 100 μg/ml while bacteria containing Plasmid #: 112265 was streaked onto CellPro™ LB (Miller) + Kanamycin 50 μg/ml and incubated for 24 hours at 37 °C in 5% CO2 in order to isolate single colonies of bacteria. Single, isolated bacterial colonies were selected utilizing a sterile pipette tip and placed in polypropylene culture tubes with vented stoppers containing 2mL of LB Broth Miller (Catalog No. BP1426-500) and the respective antibiotic for each plasmid at the recommended concentration of 100 μg/ml for ampicillin and 50 μg/ml for kanamycin. Following inoculation, these liquid cultures were placed on a shaker at 37 °C at 225rpm for 24 hours. The next day, the plasmids were sequestered and purified from the bacteria utilizing the Thermo Scientific™ GeneJET Plasmid Miniprep Kit (Catalog No. K0502).
# (§4) PKC-β/PKC-δ plasmid purification
# (§5) To sequester and purify plasmid from each culture tube, bacteria was resuspended in culture and transferred to sterile 1.7mL microcentrifuge tubes with 1 mL of bacteria placed into each tube. To harvest the bacteria, microcentrifuge tubes were placed in a microcentrifuge and spun at 8000 rpm for 2 minutes at room temperature. Note that all subsequent centrifugations were performed in a tabletop microcentrifuge at room temperature. Following centrifugation, the supernatant was decanted and 250 μL of Resuspension solution was added to the pelleted cells and vortexed.
# (§6) Afterwards, 250 μL of Lysis Solution was added to the resuspended bacterial cells and tubes were inverted 4-6 times and allowed to incubate for no more than 5 minutes to avoid denaturation of the plasmid DNA. After lysing the bacterial cells, 350 μL of Neutralization Solution was immediately added and tubes were inverted 4-6 times. Tubes were then centrifugated for 5 minutes at 14,000 rpm to pellet the cell debris and chromosomal DNA. The supernatant was then carefully aspirated using a pipette, taking care not to distribute the white precipitate of cell and DNA debris and transferred to the GeneJET spin columns, provided in the GeneJET Miniprep Kit. The spin columns were subsequently centrifugated for 1 minute, the flow-through was discarded, and the column was placed back into the same collection tube. 500 μL of Wash Solution, diluted with 96% ethanol, was added to the column, and the column was centrifugated for 1 minute at 14,000 rpm.
# (§7) The flow-through was discarded and the column was placed back into the same collection tube.
# (§8) This wash process was repeated a second time, after which the spin columns were centrifugated for an additional 1 minute to ensure all residual Wash solution was removed from the plasmids.
# (§9) The GeneJET spin columns were then transferred to new 1.7mL microcentrifuge tubes, and 50 μL of Elution Buffer was added to the center of the spin column to allow optimal elution of the plasmid
# (§10) DNA. Before centrifugating for 2 minutes, the columns were allowed to incubate for 2 minutes at […]
# (§11) room temperature. […]
# PKC-δ fused to GFP = target: T2, PKC-δ fused to GFP (Homo sapiens, UniProt Q05655); assay: as above; assay type: cell-based; settings: 1500 nM, within 10 min
# T2 construct: host or cells: CHO-K1
# Text: as §1, §2, §3, §4, §5, §6, §7, §8, §9, §10, §11
# T2 sequence (Q05655 whole entry, the tested form may be a part): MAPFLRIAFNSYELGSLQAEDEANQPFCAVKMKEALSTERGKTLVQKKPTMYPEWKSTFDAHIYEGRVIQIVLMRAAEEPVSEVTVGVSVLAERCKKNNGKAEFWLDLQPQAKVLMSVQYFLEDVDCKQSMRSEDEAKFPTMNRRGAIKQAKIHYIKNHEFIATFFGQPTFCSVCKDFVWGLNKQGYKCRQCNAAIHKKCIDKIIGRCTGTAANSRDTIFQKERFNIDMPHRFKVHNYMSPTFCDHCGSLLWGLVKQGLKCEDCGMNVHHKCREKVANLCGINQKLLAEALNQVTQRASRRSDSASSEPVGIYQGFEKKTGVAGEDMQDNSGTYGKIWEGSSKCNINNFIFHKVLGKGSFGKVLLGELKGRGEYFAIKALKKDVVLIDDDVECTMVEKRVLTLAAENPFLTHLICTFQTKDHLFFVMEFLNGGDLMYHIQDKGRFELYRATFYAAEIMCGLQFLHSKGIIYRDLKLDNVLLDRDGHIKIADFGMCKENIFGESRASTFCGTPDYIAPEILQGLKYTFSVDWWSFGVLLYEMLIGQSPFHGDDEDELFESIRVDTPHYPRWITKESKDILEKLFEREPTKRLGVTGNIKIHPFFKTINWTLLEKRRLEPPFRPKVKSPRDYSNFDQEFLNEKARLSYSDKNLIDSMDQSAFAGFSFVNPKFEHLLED
# T1 sequence (P05771 whole entry, the tested form may be a part): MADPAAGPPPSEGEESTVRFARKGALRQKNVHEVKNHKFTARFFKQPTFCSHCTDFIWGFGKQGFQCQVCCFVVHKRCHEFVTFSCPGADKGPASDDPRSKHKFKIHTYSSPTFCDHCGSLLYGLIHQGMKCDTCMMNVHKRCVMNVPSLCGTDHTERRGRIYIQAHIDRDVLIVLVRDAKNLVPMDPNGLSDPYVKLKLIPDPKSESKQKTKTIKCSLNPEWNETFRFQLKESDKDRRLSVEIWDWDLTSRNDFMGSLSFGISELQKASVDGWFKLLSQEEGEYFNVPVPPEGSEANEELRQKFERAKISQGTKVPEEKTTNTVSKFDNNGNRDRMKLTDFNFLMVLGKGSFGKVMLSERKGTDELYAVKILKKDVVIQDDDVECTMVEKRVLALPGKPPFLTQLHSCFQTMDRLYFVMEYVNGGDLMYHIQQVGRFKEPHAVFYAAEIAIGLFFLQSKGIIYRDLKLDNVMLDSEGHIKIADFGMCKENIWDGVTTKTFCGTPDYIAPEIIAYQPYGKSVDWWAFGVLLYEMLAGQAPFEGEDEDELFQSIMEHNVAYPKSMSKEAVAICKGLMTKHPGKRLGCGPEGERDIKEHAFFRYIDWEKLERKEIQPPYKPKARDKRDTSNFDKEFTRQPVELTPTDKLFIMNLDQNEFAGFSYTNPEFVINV
structure (smiles),measurement,setting,value
"C/C=C(\C)C(=O)O[C@@H]1[C@@H](C)[C@@]2(O)[C@H]([C@@H]3C(C)(C)[C@]13OC(=O)[C@@H](C)CC)[C@@H]1O[C@]1(CO)[C@@H](O)[C@]1(O)C(=O)C(C)=C[C@H]12 [EBC-46, Tigilanol tiglate]",translocation of PKC-β-GFP in words,PKC-β fused to GFP,effectively translocate PKC-β at 500 nM
same,translocation of PKC-δ-GFP in words,PKC-δ fused to GFP,selectively induced perinuclear translocation of PKC-δ
CC[C@H](C)C(=O)O[C@@]12[C@H](OC(C)(C)C)[C@@H](C)[C@@]3(O)[C@H]([C@@H]1C2(C)C)[C@@H]1O[C@]1(CO)[C@@H](O)[C@]1(O)C(=O)C(C)=C[C@H]13 [SUW430],translocation of PKC-β-GFP in words,PKC-β fused to GFP,effectively translocate PKC-β at 500 nM
same,translocation of PKC-δ-GFP in words,PKC-δ fused to GFP,selectively induced perinuclear translocation of PKC-δ
C/C=C(\C)C(=O)O[C@@H]1[C@@H](C)[C@@]2(O)[C@H]([C@@H]3C(C)(C)[C@]13OC(=O)Cc1cccc3ccccc13)[C@@H]1O[C@]1(CO)[C@@H](O)[C@]1(O)C(=O)C(C)=C[C@H]12 [SUW431],translocation of PKC-β-GFP in words,PKC-β fused to GFP,effectively translocate PKC-β at 500 nM
same,translocation of PKC-δ-GFP in words,PKC-δ fused to GFP,strong perinuclear and plasma membrane translocation of PKC-δ
